Series [1] addresses T1, FABP1 (Homo sapiens, UniProt P07148).
T1 construct: GST (N, cleaved yes); made in house; host or cells: Escherichia coli DH5α
T1 sequence (P07148 with tags, fused parts or gaps): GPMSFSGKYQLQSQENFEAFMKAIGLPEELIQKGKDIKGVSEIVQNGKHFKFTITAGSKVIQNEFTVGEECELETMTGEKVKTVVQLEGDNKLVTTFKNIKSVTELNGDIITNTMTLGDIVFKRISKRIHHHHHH
Briefly: Fluorescence titration of DAUDA with FABP1 (reverse titration). The format is binding. To be noted: DAUDA 50 nM, FABP1 titrated, quadratic fit. Here is the method:
Binding of DAUDA to FABP1 was assessed in a “reverse titration” where FABP1 was titrated into a fixed concentration of DAUDA (50 nM), yielding a characteristic gain of fluorescence (Fig. 4A) at 482 nm. FABP1 was titrated into a solution of DAUDA (“reverse titration”) and not vice versa because of the intrinsic fluorescence of DAUDA (Fig. S11E), which overlaps with the spectrum of DAUDA–FABP1 (Fig. 4A). The intrinsic fluorescence of DAUDA was generally only problematic at concentrations much higher (>500 nM) than used in the assays (50 nM), though we sought to eliminate this additional variable by performing the reverse titration to estimate the Kd.
Figure 4 Fluorescence titration of DAUDA with FABP1 (“reverse” titration).A, fluorescence spectra (λex = 335 nm) of DAUDA (0.05 μM) collected with increasing concentrations of FABP1 (0–1.25 μM). The binding of DAUDA to FABP1 is accompanied by a gain of fluorescence, indicated with an arrow. B, titration curve calculated with data points (n = 1) at the observed fluorescence maximum (482 nm) and plotted versus concentration of FABP1. Data were fit to a quadratic equation. DAUDA, 11-dansylaminoundecanoic acid; FABP1, fatty acid binding protein. […]

Series [2] concerns the target T1, FABP1. Particulars: cited from earlier work.
Series [3] in a line: Stability of DAUDA stock solutions. The format is physicochemical. On the procedure: DAUDA stock solutions (10 mM, prepared in C2H5OH) could be stored at −20 °C for up to 1 week with no significant decay of the UV spectrum and no formation of degradation peaks in the LC–MS chromatogram. Storage under these conditions for more than 1 week did compromise sample integrity (and the samples were discarded). We later observed that DAUDA stock solutions (10 mM) prepared in 50 mM K2CO3 and frozen at −80 °C could undergo several freeze–thaw cycles over the course of 2 months with no significant decay of the UV spectrum and no formation of degradation peaks in the LC–MS chromatogram.

Series [4] concerns the target T2, P450 4A11 (Homo sapiens, UniProt Q02928).
T2 sequence (Q02928 5-519): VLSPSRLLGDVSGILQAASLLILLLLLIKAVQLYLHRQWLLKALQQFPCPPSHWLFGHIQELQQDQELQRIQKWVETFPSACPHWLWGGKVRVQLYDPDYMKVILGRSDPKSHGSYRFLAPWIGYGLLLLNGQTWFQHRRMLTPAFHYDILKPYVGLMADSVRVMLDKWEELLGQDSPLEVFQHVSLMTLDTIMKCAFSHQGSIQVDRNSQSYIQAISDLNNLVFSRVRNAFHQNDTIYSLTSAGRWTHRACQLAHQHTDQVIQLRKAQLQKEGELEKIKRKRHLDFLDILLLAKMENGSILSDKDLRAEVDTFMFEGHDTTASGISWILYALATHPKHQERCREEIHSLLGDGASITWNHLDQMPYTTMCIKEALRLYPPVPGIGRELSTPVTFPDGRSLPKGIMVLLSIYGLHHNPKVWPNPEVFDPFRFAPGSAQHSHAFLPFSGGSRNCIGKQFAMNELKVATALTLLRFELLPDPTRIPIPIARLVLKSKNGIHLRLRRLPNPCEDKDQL
Briefly: Equilibrium binding titrations of P450 4A11 with lipids (heme Soret spectral shift). To be noted: P450 1 µM, DAUDA 1 nM to 10 µM.
Description: Affinity of palmitate and 16-OH palmitate for P450 4A11 (1 μM) was assessed by monitoring the blue shift (from ∼420 nm to ∼390 nm) of the P450 heme Soret band as a substrate binds and displaces the sixth axial heme ligand (H2O) to yield pentacoordinated heme (“type I” shift) ([26]).
P450 4A11 (1 μM) was titrated with (A) palmitate and (B) 16-OH palmitate in a 1.0 cm pathlength cell. Difference plots were calculated from absorbance maxima (∼390 nm) and minima (∼420 nm), and the data were fit to a hyperbolic equation. The insets in each panel are the difference spectra between a cuvette that received the lipid substrate and a cuvette that received solvent alone. Each data point corresponds to one independent replicate.
Equilibrium binding titrations with P450 4A11 (1 μM) were performed in buffer (100 mM potassium phosphate [pH 7.4]) as described previously ([44], [56]). Briefly, a baseline was first acquired on an OLIS-Cary 14 spectrophotometer set to scan from 350 to 500 nm in 1 cm glass cuvettes. […] The cuvettes were mixed with a plumper after additions, and spectra were recorded. The spectra were exported into Microsoft Excel software, and the absorbance values at 418 nm were subtracted from those at 390 nm and the values were plotted as a function of lipid concentration.
Titration of P450 4A11 with DAUDA. The P450 concentration was 1 µM and the DAUDA concentration was varied using a geometric series from 1 nM to 10 µM. […] The increase in absorbance in the UV region is due to the strong chromophore in the DAUDA dansyl moiety (Fig. S8).

The target in series [5] is T1, FABP1. Briefly: Stopped-flow kinetics of DAUDA binding to FABP1. Here is the method: In order to measure the rate of binding of DAUDA to FABP1, four concentrations (0.5–12.5 μM) of DAUDA were rapidly mixed with FABP1 (0.5 μM), and the gain of fluorescence (at 482 nm, Fig. 4A) was monitored over time (Fig. 6, A–D). […] A kon value (k4) of 9.0 ± 0.2 × 10^7 M^−1 s^−1 was calculated from the data (see the Experimental procedures section) (Fig. 6F).
Figure 6 Kinetics of binding of DAUDA to FABP1. FABP1 (0.5 μM) was mixed with (A) 0.5 μM, (B) 2.5 μM, (C) 5 μM, and (D) 12.5 μM DAUDA to yield the binding traces shown. DAUDA–FABP1 was excited (λex = 335 nm) as in Fig. 4 and total fluorescence signal >420 nm was collected. Data were fit to double exponential curves, and (E) the rate of the fast phase was extracted and plotted against DAUDA concentration. The data curve was fit to a Michaelis–Menten-type hyperbola. Each trace corresponds to ≥6 averaged replicate traces. In part A, the binding of DAUDA (0.5 μM) was proportional to the disappearance of protein (0.5 μM). The reciprocal concentration of FABP1 was plotted against time in part F, and the slope of the linear portion (linear regression in red) of that curve ([77]) gave an on-rate (kon) of 9.0 × 10^7 M^−1 s^−1. DAUDA, 11-dansylaminoundecanoic acid; FABP1, fatty acid binding protein.
Determination of the DAUDA on-rate (kon) to FABP1 was performed by mixing FABP1 (1 μM) and DAUDA ([…], see “Preparation of DAUDA stock solutions”) solutions (both in 100 mM potassium phosphate buffer, pH 7.4) in equal proportion (yielding a twofold dilution of all reaction components) using an OLIS stopped-flow spectrofluorometer with the parameters set as described earlier (see “P450 4A11 kon determinations”). […] At least six replicate measurements were recorded, the spectra were processed such that the fluorescence gain (from DAUDA binding) began at an (x, y) intercept of (0, 0), and the spectra were averaged and fit to double exponential plots in GraphPad Prism, and the rates for the fast (kon) and slow phases of binding were extracted. Then, as the first experiment was recorded by mixing equimolar (1 μM) concentrations of FABP1 and DAUDA and the binding was rapid, we approximated the binding as 2A → C (i.e., mathematically equivalent to A + B → C when the depletion of B is equal to the depletion of A ([77])). We plotted [FABP]^−1 as a function of time and fit the data to a linear equation (the slope of which is kon).

Structures are written as SMILES. Entries after “also recorded” stand apart in the source; their conditions may differ. Read-outs that look alike come from different tables or passages of the source.

As for `CN(C)c1cccc2c(S(=O)(=O)NCCCCCCCCCCC(=O)O)cccc12` [DAUDA, 11-dansylaminoundecanoic acid], the Kd in series [1] is 0.056 µM; in series [2] (human ortholog, high-affinity site, read-out: Kd,1), 0.2 µM; in series [2] (human ortholog, low-affinity site, read-out: Kd,2) it was over 3.3 µM; in series [2] (literature estimate, high-affinity site, read-out: Kd) it was over 0.46 µM. Besides, the “storage time with no significant decay of UV spectrum and no degradation peaks” value in series [3] (10 mM in 50 mM K2CO3, −80 °C, several freeze–thaw cycles) is 2 months; in series [3] (10 mM in C2H5OH, −20 °C), “up to 1 week”. In addition, the “binding to P450 4A11 (type I spectral shift)” value in series [4] was “not detected; also recorded: did not bind”. The kon in series [5] (FABP1 0.5 μM, DAUDA 0.5 μM, read-out: kon of DAUDA to FABP1 (k4)) is 9e+07 M⁻¹ s⁻¹. Besides, the koff in series [5] (calculated from kon and Kd) was 5 s⁻¹. Also, the “koff from FABP1 relative to koff from P450 4A11” value in series [5] (faster) is given as 25 fold. The “kon of DAUDA to FABP1 relative to palmitate binding to P450 4A11” value in series [5] (faster) is listed as over 2000 fold.

For orientation: Kd means the constant that tells how readily two partners part at equilibrium. The kon is a measure of how fast the partners come together. For orientation: koff means the rate constant with which the complex falls apart.
